Experiments:
[1] = tested on: CYP2C19-overexpressing HepG2 cells; assay type: cell-based
Procedure: Figure 8 Flow cytometric cell cycle analysis of cytochrome CYP2C19-overexpressing HepG2 cells treated with IC50 concentrations of compounds 4 and 6. The data are represented as mean and SD of three independent experiments. (* p < 0.05, ** p < 0.01, compared to DMSO-treated cells).
CYP2C19-overexpressing HepG2 cells were treated with IC50 concentrations of compounds 4 and 6 for 24 h. Then, the cells were fixed using 80% cold ethanol and stored overnight at −20 °C. Successively, the cells were washed twice with PBS and resuspended in 1 mL of cold PBS containing 1mg/mL RNaseA (Sigma-Aldrich, Taufkirchen, Germany) and 50 μg/mL PI (Sigma-Aldrich, Taufkirchen, Germany). After 15 min of incubation, the measurements were performed using a BD LSRFortessa™ Cell Analyzer (Becton-Dickinson, Heidelberg, Germany). DMSO-treated cells were used as a negative control.

in vitro = settings: human
Procedure: (§1) To investigate the effects of the in silico identified compounds on cell viability, we used CYP2C19-overexpressing HepG2 cells (Figure 3). Different concentrations (ranging from 0.003 to 100 μM) were tested.
(§2) Figure 3 Resazurin assay of cytochrome P450 2C19-overexpressing HepG2 cells treated with different concentrations of the six selected compounds. All experiments were performed in three replicate measurements of mean ± SD.
(§3) CYP2C19-overexpressing HepG2 cells were originated as previously described. Cells were grown in DMEM medium (DMEM, 31966021, Gibco™, Billings, MT, USA) at 37 °C and 5% CO2 in a humidified incubator. DMEM media were supplemented with 10% fetal bovine serum (FBS) and with 3 μg/mL blasticidin (ant-bl-05, InvivoGen, San Diego, CA, USA) to preserve the selection of transfected CYP2C19-overexpressing HepG2 cells.
(§4) Aliquots of 10^4 CYP2C19-overexpressing HepG2 cells were seeded per well into 96-well plates. Cells were treated with different concentrations of the selected compounds with a range from 0.003 to 100 µM in a total volume of 200 µL for 72 h. Successively, 20 µL/well of resazurin 0.01% w/v (Sigma Aldrich, Taufkirchen, Germany) was added. The fluorescence intensity was measured with an Infinite M200 Pro-plate reader (Tecan, Crailsheim, Germany). Dose–response curves were engendered for three independent experiments for each compound, and 50% inhibition concentrations (IC50) were calculated. The analysis was represented using the […] GraphPad Software (version 9.5.1) (La Jolla, CA, USA).

[2] = tested on: CYP2C19-overexpressing HepG2 cells; assay: RNA sequencing with pathway enrichment analysis; assay type: cell-based; settings: for genes of 'cholesterol biosynthetic process' influenced by only one compound: Venn diagram of compounds 4-6, vs DMSO; for genes of 'DNA replication' pathway exclusively influenced by the compound: Venn diagram of compounds 4 and 6, vs DMSO
Procedure: Functional enrichment analysis with clusterProfiler was executed using the gene ontology biological process annotation. Finally, with the GeneTonic software (version 2.4.0), a visual summary of the influenced pathways, from here on referred to as 'enriched pathways', was created. […] The size of the dots corresponds to the number of genes in the reference gene set. […] Control cells were treated with 0.2% DMSO. After 24 h of incubation, the cells were harvested. RNA extraction was performed with an […] RNA Mini Kit (Invitek Molecular GmbH, Berlin, Germany) according to the manufacturer's instructions. The cell pellet was lysed with 350 μL of Lysis Solution and treated with β-mercaptoethanol. After DNA removal, 350 μL of 70% ethanol was added, and the sample was applied onto the RNA-RTA spin filter. After several washing steps, RNA was eluted with 60 μL of Elution Buffer R, and the concentration and purity were measured with NanoDrop. RNA sequencing was performed by […] GmbH, Mainz, Germany. The quality of the extracted RNA was verified by the company with a 2100 Bioanalyzer system (Agilent Technologies, Santa Clara, CA, USA). After mRNA isolation and library preparation using a NEBNext^© UltraTM II Directional RNA Library Prep Kit (New England Biolabs, Ipswich, MA, USA), RNA sequencing of around 25 Mio PE reads (2 × 12.5 M reads, 2 × 150 nt) was performed with an Illumina NextSeq 2000TM system. Each treatment and control group included two replicates. The FastQC tool (0.12.0, https://www.bioinformatics.babraham.ac.uk/projects/fastqc/) (accessed 15 February 2023) was used for quality control on the sequencing data. Transcript abundance estimates were computed with Salmon (version 1.5.0) with a transcriptome index generated by GENCODE (version 38) and then summarized to the gene level with the […] package (version 1.16.0). Exploration, modelling, and interpretation of the expression data followed the protocols defined by Ludt et al. […] Exploratory data analysis was performed with the pcaExplorer package (version 2.24.0). […] Accurate estimation of the effect sizes (described as log2-fold changes) was performed using the […] shrinkage estimator (version 1.20.0). Further analyses included gene ontology pathway enrichment by topGO (version 2.50.0) using all expressed genes as a background dataset and the ideal package (version 1.22.0) and by clusterProfiler (version 4.6.0) with default settings and the log2-fold change as the input.

[3] = tested on: CYP2C19-overexpressing HepG2 cells; assay: Resazurin reduction assay (growth inhibition / cytotoxicity); settings: CYP2C19-overexpressing HepG2 cells, 0.003 to 100 μM, 72 h
Procedure: as §1, §2, §3, §4

[4] = IC50 concentration, 24 h, vs DMSO

Structure (SMILES) | G0/G1 population [1] [%] | percentage change in the sub-G0 and G2/M phases [1] | percentage of S-phase cells [1] [%] | IC50 at 72 h (in vitro) [µM] | mitosis-related pathways ('mitotic sister chromatid segregation', 'sister chromatid segregation', 'regulation of mitotic sister chromatid separation', 'chromosome organization') [2, 4] | pathway 'DNA replication' [2, 4] | genes of 'cholesterol biosynthetic process' influenced by only one compound [2] | genes of 'DNA replication' pathway exclusively influenced by the compound [2] | cell death mechanisms 'autophagy' and 'process utilizing autophagic mechanism' [2, 4] | pathways 'cholesterol metabolic process' and 'sterol metabolic process' [2, 4] | pathways 'cytokine production' and 'regulation of cytokine production' [2, 4] | affected genes related to 'regulation of cytokine production' ([2]; vs DMSO) [genes] | other results
Cc1cc(Cc2cc(C)cc(C3CCCCC3)c2O)c(O)c(C2CCCCC2)c1 [compound 6, 2,2′-methylene bis(6-cyclohexyl-4-methylphenol)] | 72.30 ± 1.68 | No significant percentage change | 6.76 ± 3.28 | 20.16 ± 0.06 | suppressed | suppressed | one | nine | – | – | – | – | angiogenesis-related pathways 'vasculature development', 'blood vessel morphogenesis', 'blood vessel development' [2, 4]: activated; pathway 'inflammatory response' [2, 4]: activated; pathway 'response to nutrients levels' [2, 4]: activated; pathways 'nuclear chromosome segregation', 'mitotic nuclear division', 'chromosome segregation' [2, 4]: down-regulated
Cc1cc(Cc2cc(C)cc(C(C)(C)C)c2O)c(O)c(C(C)(C)C)c1 [compound 4, 2,2′-methylene bis(6-tert-butyl-4-methylphenol)] | 74.11 ± 1.98 | No significant percentage change | 8.05 ± 1.92 | 18.6 ± 0.94 | suppressed | suppressed | two | Forty-one | activated | suppressed | activated | 82 | pathway 'DNA-templated DNA replication' [2, 4]: suppressed; pathway 'metaphase/anaphase transition of mitotic cell cycle' [2, 4]: suppressed
CC(c1cc(C(C)(C)C)cc(C(C)(C)C)c1O)c1cc(C(C)(C)C)cc(C(C)(C)C)c1O [compound 5, 1,1-bis(3,5-di-tert-butyl-2-hydroxyphenyl)ethane] | – | – | – | 18.1 ± 0.68 | – | – | three | – | activated | suppressed | activated | 80 | pathways 'steroid biosynthetic process', 'alcohol biosynthetic pathway', 'alcohol metabolic process', 'organic hydroxy compound metabolic process' [2, 4]: suppressed
O=C(OC1CCCCC1)c1ccccc1C(=O)OC1CCCCC1 [compound 1, dicyclohexyl phthalate] | – | – | – | 88 ± 7.77 | – | – | – | – | – | – | – | – | –
CC(C)COC(=O)c1ccccc1C(=O)OCC(C)C [compound 2, diisobutyl phthalate] | – | – | – | > 100 | – | – | – | – | – | – | – | – | cytotoxic effect [3]: did not exhibit any cytotoxic effect
CC(C)(C)CC(C)(C)c1ccc(O)c(-n2nc3ccccc3n2)c1 [compound 3, octrizole] | – | – | – | 67.5 ± 2.05 | – | – | – | – | – | – | – | – | –

— publication PMC10459118, “The Effect of Plastic-Related Compounds on Transcriptome-Wide Gene Expression on CYP2C19-Overexpressing HepG2 Cells” (Molecules, 2023)
